{"source": "patent US20230093975A1", "about": "“I[…] FOR TREATING CENTRAL NERVOUS SYSTEM DISORDERS” (priority 2021, published 2023)", "key": {"[1]": {"settings": "oral rivastigmine, cited from earlier work"}, "[2]": {"assay": "Oral rivastigmine pharmacokinetics and estimated CSF uptake (Exelon label)", "format": "in vivo", "settings": "plasma volume 2750 mL, CSF volume 150 mL", "description": "Drug coating and formulation development. The absolute bioavailability of oral rivastigmine is approximately 40%, and the AUC1-12 h cerebral spinal fluid (CSF)/plasma ratio is about 40% (Novartis Exelon® Capsules and Oral Solution Prescribing Information). An estimated 0.87% of the rivastigmine oral dose is absorbed and distributed into the CSF. Thus, the daily CSF uptake of this drug is estimated to be between 26-105 μg. As a starting point for the formulation development, we will first target to formulate a matrix loaded with rivastigmine which will be released over 30 days in a near linear manner. Bilateral administration of the rivastigmine matrix would result in approximately 21-107 μg rivastigmine delivered to CSF/day, assuming a CSF bioavailability between 10-50%.\nFor oral administration, delivery, an absolute bioavailability of Rivastigmine is about 40% and a mean AUC (area under the curve) 1-12 hr CSF/Plasma is about 40% (Exelon Label). The daily doses delivered to CSF are 26 μg/day, 52 μg/day, 79 μg/day, and 105 μg/day for the oral doses, equating to 1.5 mg BID, 3 mg BID, 4.5 mg BID, and 6 mg BID, respectively. For this estimation, a plasma volume of 2750 mL and a CSF volume of 150 mL are used."}}, "note": "Like-named read-outs stand apart in the source and are kept apart here."}
{"smiles": "CCN(C)C(=O)Oc1cccc([C@H](C)N(C)C)c1", "note": "[Rivastigmine]", "values": [{"measurement": "AUC1-12 h CSF/plasma ratio", "setting": "[1]", "value": "about 40%"}, {"measurement": "AUC1-12 h CSF/plasma ratio", "setting": "[1]; listed as rivastigmine", "value": "approximately 40%"}, {"measurement": "share of oral dose absorbed and distributed into the CSF", "setting": "[2]", "value": 0.87, "unit": "%"}]}
